Publication PMC9995496, “A screen for MeCP2-TBL1 interaction inhibitors using a luminescence-based assay” (Scientific Reports, 2023)
Where a name gives a salt, the structure may show the parent alone.

test system: PRKACA-PRKAR2A interaction (SmBiT-PRKACA / LgBiT-PRKAR2A), protein kinase A; design: NanoLuc complementation counter-screen in cell extract, PRKACA with PRKAR2A, loss of luminescence, detects NanoLuc interference; conditions: 0.5 h, 20 µM; inhibitor

Row | Compound | Inh (PKA) [%]
1 | Cc1cccc(C)c1NC1=NCCCS1 [UM0134421:02, Xylazine HCl] | 1.103

same assay, conditions: counter-screen for NanoLuc interference, 0.5 h, 20 µM, inhibitor, Inh (PKA)

Row | Compound | Inh (PKA) [%]
2 | O=C(O)/C=C/c1ccc(Cn2ccnc2)cc1 [UM0134313:02, Ozagrel HCl] | -0.66
3 | CNCc1ccc(-c2[nH]c3cc(F)cc4c3c2CCNC4=O)cc1 [UM0135471:02, Rucaparib (AG-014699,PF-01367338)] | 3.125

same assay, conditions: counter-screen for NanoLuc interference; 0.5 h, 20 µM; inhibitor

Row | Compound | Inh (PKA) [%]
4 | CO/N=C(\C(=O)N[C@@H]1C(=O)N2C(C(=O)O)=C(COC(C)=O)CS[C@H]12)c1csc(N)n1 [UM0133637:02, Cefotaxime (sodium salt)] | 1.378
5 | CC[C@@]1(O)C(=O)OCc2c1cc1n(c2=O)Cc2cc3ccccc3nc2-1 [UM0133648:02, Camptothecin] | 1.997
6 | COCCOC(=O)C1=C(C)NC(C)=C(C(=O)OC/C=C/c2ccccc2)C1c1cccc([N+](=O)[O-])c1 (centres unmarked) [UM0133650:02, Cilnidipine] | 81.64
7 | CCCCCCCCCCCC1=C(O)C(=O)C=C(O)C1=O [UM0133662:02, Embelin] | 15.52
8 | CC(C)=CC[C@@H](O)C1=CC(=O)c2c(O)ccc(O)c2C1=O [UM0133665:02, Shikonin] | 46.09
9 | Nc1ccn([C@H]2CC[C@@H](CO)O2)c(=O)n1 [UM0133684:02, Zalcitabine] | -0.04839
10 | CC(C)(C)NC(=O)[C@H]1CC[C@H]2[C@@H]3CC[C@H]4NC(=O)C=C[C@]4(C)[C@H]3CC[C@]12C [UM0133719:02, Finasteride] | 1.602
11 | COCCCC/C(=N\OCCN)c1ccc(C(F)(F)F)cc1 [UM0133722:02, Fluvoxamine maleate] | 2.345
12 | O=c1[nH]cc(F)c(=O)[nH]1 [UM0133724:03, Fluorouracil (Adrucil)] | 1.181
13 | O=C(/C=C/c1ccc(O)c(O)c1)OCCc1ccccc1 [UM0133732:02, Caffeic Acid Phenethyl Ester] | 43.72
14 | C[C@H]1CCC/C=C/[C@@H]2C[C@H](O)C[C@H]2[C@H](O)/C=C/C(=O)O1 [UM0133745:02, Brefeldin A] | 1.414
15 | O=c1c(-c2ccc(O)cc2)coc2cc(O)cc(O)c12 [UM0133748:02, Genistein] | 59.26
16 | CC1=C(/C=C/C(C)=C/C=C/C(C)=C\C(=O)O)C(C)(C)CCC1 [UM0133752:04, Isotretinoin] | 16.35
17 | CC1(C)CCC2=C(O1)c1ccccc1C(=O)C2=O [UM0133760:02, Beta-Lapachone] | 9.4
18 | CO[C@@]12[C@H](COC(N)=O)C3=C(C(=O)C(C)=C(N)C3=O)N1C[C@@H]1N[C@@H]12 [UM0133761:02, Mitomycin C] | 0.5965
19 | COc1cccc2c1C(=O)c1c(O)c3c(c(O)c1C2=O)C[C@@](O)(C(=O)CO)C[C@@H]3O[C@H]1C[C@H](N)[C@H](O)[C@H](C)O1 [UM0133765:03, Doxorubicin] | 45.98
20 | CC1=C2C[C@H]3[C@@H](CC=C4C[C@@H](O)CC[C@@]43C)[C@@H]2CC[C@]12O[C@@H]1C[C@H](C)CN[C@H]1[C@H]2C [UM0133766:02, Cyclopamine] | 2.445
21 | CN1CCC(=C2c3ccccc3CC(=O)c3sccc32)CC1 [UM0133795:02, Ketotifen Fumarate] | 5.692
22 | C/C(O)=C(\C#N)C(=O)Nc1cc(Br)ccc1Br [UM0133802:02, LFM-A13] | 54.46
23 | Cc1ccc(Cl)c(Nc2ccccc2C(=O)O)c1Cl [UM0133818:02, Meclofenamate Sodium] | 21.07

Row | Compound | Inh (PKA) [%]
24 | Cc1[nH]c(=O)c(C#N)cc1-c1ccncc1 [UM0133819:02, Milrinone] | -0.01503
25 | O=c1cc(-c2ccc(O)cc2)oc2cc(O)cc(O)c12 [UM0133861:02, Apigenin] | 24.67
26 | COc1ccc(-c2coc3cc(O)cc(O)c3c2=O)cc1 [UM0133867:02, Biochanin A] | 69.13
27 | O=C(/C=C/c1ccc(O)c(O)c1)c1ccc(O)cc1O [UM0133869:02, Butein] | 52.51
28 | O=c1cc(-c2ccc(O)c(O)c2)oc2cc(O)cc(O)c12 [UM0133934:02, Luteolin] | 25.55
29 | O=c1c(O)c(-c2cc(O)c(O)c(O)c2)oc2cc(O)cc(O)c12 [UM0133944:02, Myricetin] | 47.98
30 | CC1=CC(=O)c2c(O)cccc2C1=O [UM0133960:02, Plumbagin] | 19.95
31 | C[C@H]1COC2=C1C(=O)C(=O)c1c2ccc2c1CCCC2(C)C [UM0134017:02, Cryptotanshinone] | 20.28
32 | COc1c2occc2cc2ccc(=O)oc12 [UM0134068:02, 8-Methoxypsoralen] | 2.167
33 | CN1C(C(=O)Nc2ccccn2)=C(O)c2ccccc2S1(=O)=O [UM0134086:02, Piroxicam] | 4.329
34 | Cc1ccc(C(=O)Cn2c3c(sc2=N)CCCC3)cc1 [UM0134099:02, Pifithrin-?] | 9.08
35 | Cc1nc2n(c(=O)c1CCN1CCC(c3noc4cc(F)ccc34)CC1)CCCC2 [UM0134126:02, Risperidone] | 4.965
36 | Clc1cccc(Cl)c1NC1=NCCN1 [UM0134172:02, Clonidine HCl] | 1.329
37 | c1ccc(CN(CC2=NCCN2)c2ccccc2)cc1 [UM0134174:02, Antazoline HCl] | 0.9494
38 | O=C1CN(/N=C/c2ccc(-c3ccc([N+](=O)[O-])cc3)o2)C(=O)N1 [UM0134180:02, Dantrolene, sodium salt] | 25.72
39 | O=C(NCCN1CCOCC1)c1ccc(Cl)cc1 [UM0134186:02, Moclobemide (Ro 111163)] | 0.401
40 | C[C@H]1O[C@@H](O[C@H]2[C@@H](O)C[C@H](O[C@H]3[C@@H](O)C[C@H](O[C@H]4CC[C@@]5(C)[C@H](CC[C@@H]6[C@@H]5C[C@@H](O)[C@]5(C)[C@@H](C7=CC(=O)OC7)CC[C@]65O)C4)O[C@@H]3C)O[C@@H]2C)C[C@H](O)[C@@H]1O [UM0134205:02, Digoxin] | -2.961
41 | C[C@@H]1O[C@@H](O[C@H]2C[C@@H](O)[C@]3(CO)[C@H]4[C@H](O)C[C@]5(C)[C@@H](C6=CC(=O)OC6)CC[C@]5(O)[C@@H]4CC[C@]3(O)C2)[C@H](O)[C@H](O)[C@H]1O [UM0134215:02, Ouabain] | 0.8032
42 | CCC1=C(C)CN(C(=O)NCCc2ccc(S(=O)(=O)NC(=O)N[C@H]3CC[C@H](C)CC3)cc2)C1=O [UM0134252:02, Glimepiride] | 4.382
43 | CC1(C)[C@@H](OC(=O)CCC(=O)O)CC[C@]2(C)[C@H]3C(=O)C=C4[C@@H]5C[C@@](C)(C(=O)O)CC[C@]5(C)CC[C@@]4(C)[C@]3(C)CC[C@@H]12 [UM0134288:02, Carbenoxolone disodium] | 9.677

Row | Compound | Inh (PKA) [%]
44 | C#C[C@]1(OC(C)=O)CC[C@H]2[C@@H]3CCC4=C[C@@H](OC(C)=O)CC[C@@H]4[C@H]3CC[C@@]21C [UM0134301:02, Ethynodiol diacetate] | 16.1
45 | CC1=C(CC(=O)O)c2cc(F)ccc2/C1=C\c1ccc([S+](C)[O-])cc1 (centres unmarked) [UM0134349:02, Sulindac] | 3.185
46 | CN(C)c1ccc(/C=C2\C(=O)Nc3ccccc32)cc1 [UM0134350:02, SU 4312] | 71.43
47 | COC[C@H]1OC(=O)c2coc3c2[C@@]1(C)C1=C(C3=O)[C@@H]2CCC(=O)[C@@]2(C)C[C@H]1OC(C)=O [UM0134355:02, Wortmannin] | 31.91
48 | COc1ccc(/C=C/C(=O)Nc2ccccc2C(=O)O)cc1OC [UM0134356:02, Tranilast] | 18.34
49 | COc1ccccc1N1CCN(CCN(C(=O)C2CCCCC2)c2ccccn2)CC1 [UM0134420:02, WAY-100635 maleate salt] | 1.248
50 | C=CCn1c(=O)c2cnc(Nc3ccc(N4CCN(C)CC4)cc3)nc2n1-c1cccc(C(C)(C)O)n1 [UM0135452:02, MK-1775] | 7.841
51 | CS(=O)(=O)c1ccc(-c2cnc(N)c(C(=O)Nc3ccccc3)n2)cc1 [UM0135461:02, VE-821] | 11.31
52 | CNCc1ccc(-c2cc(-c3nc(-c4ccc(S(=O)(=O)C(C)C)cc4)cnc3N)on2)cc1 [UM0135462:02, VE-822] | 14.15
53 | O=c1cc(N2CCOCC2)oc2c(-c3cccc4c3sc3ccccc34)cccc12 [UM0135467:02, NU7441 (KU-57788)] | 24.55
54 | CC(C)(C#N)c1ccc(N2C(=O)OCc3cnc4ccc(-c5cnc6ccccc6c5)cc4c32)cc1 [UM0135469:02, ETP-46464] | 11.28
55 | O=C(c1cc(Cc2n[nH]c(=O)c3ccccc23)ccc1F)N1CCN(C(=O)C2CC2)CC1 [UM0135473:02, Olaparib (AZD2281, Ku-0059436)] | 2.339
56 | CC(C)C[C@H](NC(=O)[C@H](Cc1ccccc1)NC(=O)c1cnccn1)B(O)O [UM0135483:03, Bortezomib (PS-341)] | 1.59
57 | CO[C@H]1C[C@@H]2CC[C@@H](C)[C@@](O)(O2)C(=O)C(=O)N2CCCC[C@H]2C(=O)O[C@H]([C@H](C)C[C@@H]2CC[C@@H](OC(=O)C(C)(CO)CO)[C@H](OC)C2)CC(=O)[C@H](C)/C=C(\C)[C@@H](O)[C@@H](OC)C(=O)[C@H](C)C[C@H](C)/C=C/C=C/C=C/1C [UM0135484:03, Temsirolimus] | 1.626
58 | Cn1cncc1[C@@](N)(c1ccc(Cl)cc1)c1ccc2c(c1)c(-c1cccc(Cl)c1)cc(=O)n2C [UM0135485:03, Tipifarnib (Zarnestra)] | 47.09
59 | COc1cc(Nc2ncc3c(n2)-c2ccc(Cl)cc2C(c2c(F)cccc2OC)=NC3)ccc1C(=O)O [UM0135487:02, MLN8237 (Alisertib)] | 50.43
60 | CS(=O)(=O)c1ccc(C(=O)Nc2ccc(Cl)c(-c3ccccn3)c2)c(Cl)c1 [UM0135488:02, GDC-0449 (Vismodegib)] | 8.773
61 | CC1(C)CCC(CN2CCN(c3ccc(C(=O)NS(=O)(=O)c4ccc(NCC5CCOCC5)c([N+](=O)[O-])c4)c(Oc4cnc5[nH]ccc5c4)c3)CC2)=C(c2ccc(Cl)cc2)C1 [UM0135497:03, ABT-199] | 28.89
62 | S=c1[nH]cnc2nc[nH]c12 [UM0135507:02, Mercaptopurine (6-MP)] | 1.981
